The text below walks through data of patent US8227425B2, “Antiviral compounds” (Therapicon Srl, priority 2007, dated 2012).

The structures appear in SMILES notation. Like-named read-outs stand apart in the source and are kept apart here. Some results are limits rather than exact numbers.

Common to all, as to assay: microbe, parasite or virus in culture
One test deals with A/Panama/2007/99-H3N2. It is filed as cell-based, influenza virus type A. The following applies: for IC50: Influenza A virus, H3N2, MDCK, 72 h, read-out: concentration of the compound necessary to reduce the plaques number to 50% against the control.
The test system of test [1] is A/NewCaledonia/20/99-H1N1. The format is cell-based, influenza virus type A. The following applies: for IC50: Influenza A virus, H1N1, MDCK, 72 h, read-out: concentration of the compound necessary to reduce the plaques number to 50% against the control.
Another test relates to B/Shandong/7/97. The format is cell-based. The following applies: for IC50: Influenza B virus, 72 h, read-out: concentration of the compound necessary to reduce the plaques number to 50% against the control.
The mark [2] stands for this setting: MDCK cells, about 50 PFU/ml, 3 days, tested 0.01-100 μM, duplicate.

With `NC12CC3CC(CC(C3)C1)C2` [Amantadine, amantadine, reference compound], the results for the IC50 (in the test with A/Panama/2007/99-H3N2; in test [1]; in the test on B/Shandong/7/97 (MDCK)) were 10 µM, 0.1 µM and more than 100 µM, respectively.
Regarding `CC(=O)NC1C(O)CC(O)(C(=O)O)OC1CNC12CC3CC(CC(C3)C1)C2` (stereo not shown) [Compound 1], the IC50 was 10 µM in the test with A/Panama/2007/99-H3N2, 1 µM in test [1] and 10 µM with B/Shandong/7/97 (setting [2]). Moreover, the “antiviral activity relative to amantadine (fold less)” value in test [1] came to 10 fold.
`CC(=O)NC1C(O)CC(O)(C(=O)O)OC1CNC12CC3CC(C)(CC(C)(C3)C1)C2` (stereo not shown) [Compound 8]: the “antiviral activity relative to memantine (fold more)” value (with A/Panama/2007/99-H3N2; in test [1]) was approximately 10 fold throughout. Moreover, the IC50 was 10 µM in the test with A/Panama/2007/99-H3N2, 10 µM in test [1] and more than 100 µM with B/Shandong/7/97 (setting [2]). Moreover, the “antiviral activity against influenza virus type B in the tested concentration range” value in the test with B/Shandong/7/97 (tested 0.01-100 μM, PRA) is “Any antiviral activity of Compound 8 has been evidenced”.
Regarding `CC12CC3CC(C)(C1)CC(N)(C3)C2` [Memantine, memantine, reference compound], the IC50 (with A/Panama/2007/99-H3N2; in test [1]; in the test on B/Shandong/7/97 (setting [2])) was 100 µM each time.
